# Data published in PubChem BioAssay AID2060503 (Molecular Pharmacology Branch, DTP, NCI, 2025).
# System: 817829-284-R-J1-PDC complex spheroids, viability
# Assay: Anticancer human tumor 817829-284-R-J1-PDC patient-derived colon adenocarcinoma cell line growth inhibition [GQUAD]
# Conditions: for IC50: curve of first compound; for viability, T/C: stronger effect = lower value
# Method in brief: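 Tumor cells were grown as complex spheroids with HUVEC endothelial cells and mesenchymal stem cells as stroma. G-quadruplex stabilizers were combined with targeted agents over half-log dilutions from near the clinical Cmax, or from 10 microM.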
# [1] = second compound 0.0316 µM, first compound 0.0316 µM
# [2] = second compound 0.0316 µM, first compound 0.1 µM
# [3] = second compound 0.0316 µM, first compound 0.316 µM
# [4] = second compound 0.0316 µM, first compound 1 µM
# [5] = second compound 0.0316 µM, first compound 3.16 µM
# [6] = second compound 0.0316 µM, first compound 10 µM
# [7] = second compound 0.1 µM, first compound 0.0316 µM
# [8] = second compound 0.1 µM, first compound 0.1 µM
# [9] = second compound 0.1 µM, first compound 0.316 µM
# [10] = second compound 0.1 µM, first compound 1 µM
# [11] = second compound 0.1 µM, first compound 3.16 µM
# [12] = second compound 0.1 µM, first compound 10 µM
# [13] = second compound 0.316 µM, first compound 0.0316 µM
# [14] = second compound 0.316 µM, first compound 0.1 µM
# [15] = second compound 0.316 µM, first compound 0.316 µM
# [16] = second compound 0.316 µM, first compound 1 µM
# [17] = second compound 0.316 µM, first compound 3.16 µM
# [18] = second compound 0.316 µM, first compound 10 µM
# [19] = second compound 1 µM, first compound 0.0316 µM
# [20] = second compound 1 µM, first compound 0.1 µM
# [21] = second compound 1 µM, first compound 0.316 µM
# [22] = second compound 1 µM, first compound 1 µM
# [23] = second compound 1 µM, first compound 3.16 µM
# [24] = second compound 1 µM, first compound 10 µM
# [25] = second compound 3.16 µM, first compound 0.0316 µM
# [26] = second compound 3.16 µM, first compound 0.1 µM
# [27] = second compound 3.16 µM, first compound 0.316 µM
# [28] = second compound 3.16 µM, first compound 1 µM
# [29] = second compound 3.16 µM, first compound 3.16 µM
# [30] = second compound 3.16 µM, first compound 10 µM
# [31] = second compound 10 µM, first compound 0.0316 µM
# [32] = second compound 10 µM, first compound 0.1 µM
# [33] = second compound 10 µM, first compound 0.316 µM
# [34] = second compound 10 µM, first compound 1 µM
# [35] = second compound 10 µM, first compound 3.16 µM
# [36] = second compound 10 µM, first compound 10 µM
# 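Further: spheroids exposed to agents for 7 days before readout.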
# 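Wherever viability, T/C is given: percent viability relative to DMSO vehicle control taken as 100%.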
smiles,measurement,setting,value
C#Cc1c(F)ccc2cc(O)cc(-c3ncc4c(N5CC6CCC(C5)N6)nc(OCC56CCCN5CC(F)C6)nc4c3F)c12 (stereo not given) + CN(C)c1ccc(Nc2c3ccc(NC(=O)CCN4CCCC4)cc3nc3cc(NC(=O)CCN4CCCC4)ccc23)cc1,IC50,second compound 0.0316 µM,> 10 µM
same,IC50,second compound 0.1 µM,> 10 µM
same,IC50,second compound 0.316 µM,> 10 µM
same,IC50,second compound 1 µM,> 10 µM
same,IC50,second compound 3.16 µM,> 10 µM
same,IC50,second compound 10 µM,4.69 µM
same,"viability, T/C",[1],120%
same,"viability, T/C",[2],98.2%
same,"viability, T/C",[3],96%
same,"viability, T/C",[4],98.1%
same,"viability, T/C",[5],117%
same,"viability, T/C",[6],121%
same,"viability, T/C",[7],95.5%
same,"viability, T/C",[8],106%
same,"viability, T/C",[9],95.8%
same,"viability, T/C",[10],98.4%
same,"viability, T/C",[11],114%
same,"viability, T/C",[12],116%
same,"viability, T/C",[13],111%
same,"viability, T/C",[14],105%
same,"viability, T/C",[15],97.9%
same,"viability, T/C",[16],106%
same,"viability, T/C",[17],101%
same,"viability, T/C",[18],118%
same,"viability, T/C",[19],96.1%
same,"viability, T/C",[20],97%
same,"viability, T/C",[21],113%
same,"viability, T/C",[22],97.8%
same,"viability, T/C",[23],105%
same,"viability, T/C",[24],105%
same,"viability, T/C",[25],107%
same,"viability, T/C",[26],112%
same,"viability, T/C",[27],102%
same,"viability, T/C",[28],110%
same,"viability, T/C",[29],117%
same,"viability, T/C",[30],101%
same,"viability, T/C",[31],107%
same,"viability, T/C",[32],116%
same,"viability, T/C",[33],87.4%
same,"viability, T/C",[34],94%
same,"viability, T/C",[35],61.5%
same,"viability, T/C",[36],24.5%
CC(=O)O[C@H]1C(=O)[C@@]2(C)[C@H]([C@H](OC(=O)c3ccccc3)[C@]3(O)C[C@H](OC(=O)[C@H](O)[C@@H](NC(=O)c4ccccc4)c4ccccc4)C(C)=C1C3(C)C)[C@]1(OC(C)=O)CO[C@@H]1C[C@@H]2O + Cc1cnc(CNC(=O)c2c(=O)c3ccc(N4CCCN(C)CC4)nc3n3c2sc2ccccc23)cn1,IC50,second compound 0.0316 µM,< 0.0316 µM
same,IC50,second compound 0.1 µM,< 0.0316 µM
same,IC50,second compound 0.316 µM,< 0.0316 µM
same,IC50,second compound 1 µM,< 0.0316 µM
same,IC50,second compound 3.16 µM,< 0.0316 µM
same,IC50,second compound 10 µM,< 0.0316 µM
same,"viability, T/C",[1],13.8%
same,"viability, T/C",[2],7.95%
same,"viability, T/C",[3],6.83%
same,"viability, T/C",[4],5.58%
same,"viability, T/C",[5],6.63%
same,"viability, T/C",[6],7.13%
same,"viability, T/C",[7],16.6%
same,"viability, T/C",[8],15.9%
same,"viability, T/C",[9],13.2%
same,"viability, T/C",[10],13.6%
same,"viability, T/C",[11],14.1%
same,"viability, T/C",[12],14.8%
same,"viability, T/C",[13],17.9%
same,"viability, T/C",[14],20.6%
same,"viability, T/C",[15],19.2%
same,"viability, T/C",[16],19.6%
same,"viability, T/C",[17],16%
same,"viability, T/C",[18],20.2%
same,"viability, T/C",[19],15.3%
same,"viability, T/C",[20],20.4%
same,"viability, T/C",[21],17.4%
same,"viability, T/C",[22],17%
same,"viability, T/C",[23],17.5%
same,"viability, T/C",[24],16.5%
same,"viability, T/C",[25],17.3%
same,"viability, T/C",[26],16.9%
same,"viability, T/C",[27],14.7%
same,"viability, T/C",[28],14.4%
same,"viability, T/C",[29],12.7%
same,"viability, T/C",[30],13.1%
same,"viability, T/C",[31],0.11%
same,"viability, T/C",[32],0.16%
same,"viability, T/C",[33],0.15%
same,"viability, T/C",[34],0.14%
same,"viability, T/C",[35],0.15%
same,"viability, T/C",[36],0.15%
O=c1[nH]cc(F)c(=O)[nH]1 + Cc1cnc(CNC(=O)c2c(=O)c3ccc(N4CCCN(C)CC4)nc3n3c2sc2ccccc23)cn1,IC50,second compound 0.0316 µM,0.799 µM
same,IC50,second compound 0.1 µM,< 0.0316 µM
same,IC50,second compound 0.316 µM,< 0.0316 µM
same,IC50,second compound 1 µM,< 0.0316 µM
same,IC50,second compound 3.16 µM,< 0.0316 µM
same,IC50,second compound 10 µM,< 0.0316 µM
same,"viability, T/C",[1],91.4%
same,"viability, T/C",[2],75.3%
same,"viability, T/C",[3],77.6%
same,"viability, T/C",[4],43%
same,"viability, T/C",[5],37.6%
same,"viability, T/C",[6],33%
same,"viability, T/C",[7],29.9%
same,"viability, T/C",[8],41.6%
same,"viability, T/C",[9],34.2%
same,"viability, T/C",[10],35.5%
same,"viability, T/C",[11],29.1%
same,"viability, T/C",[12],25.7%
same,"viability, T/C",[13],25.3%
same,"viability, T/C",[14],27.6%
same,"viability, T/C",[15],32.9%
same,"viability, T/C",[16],26.8%
same,"viability, T/C",[17],26.7%
same,"viability, T/C",[18],23.3%
same,"viability, T/C",[19],22.8%
same,"viability, T/C",[20],22.4%
same,"viability, T/C",[21],23.5%
same,"viability, T/C",[22],24.8%
same,"viability, T/C",[23],22.9%
same,"viability, T/C",[24],21.4%
same,"viability, T/C",[25],21.8%
same,"viability, T/C",[26],21.2%
same,"viability, T/C",[27],19.6%
same,"viability, T/C",[28],19.5%
same,"viability, T/C",[29],20.1%
same,"viability, T/C",[30],18%
same,"viability, T/C",[31],0.08%
same,"viability, T/C",[32],0.13%
same,"viability, T/C",[33],0.17%
same,"viability, T/C",[34],0.14%
same,"viability, T/C",[35],0.19%
same,"viability, T/C",[36],0.16%
Cc1cccc(N(C)C(=O)C2C(O)CCN2c2nc(C)cc(C(F)(F)F)c2C#N)c1 (stereo not given) + CN(C)c1ccc(Nc2c3ccc(NC(=O)CCN4CCCC4)cc3nc3cc(NC(=O)CCN4CCCC4)ccc23)cc1,IC50,second compound 0.0316 µM,> 10 µM
same,IC50,second compound 0.1 µM,> 10 µM
same,IC50,second compound 0.316 µM,> 10 µM
same,IC50,second compound 1 µM,> 10 µM
same,IC50,second compound 3.16 µM,> 10 µM
same,IC50,second compound 10 µM,4.03 µM
same,"viability, T/C",[1],101%
same,"viability, T/C",[2],102%
same,"viability, T/C",[3],92.5%
same,"viability, T/C",[4],90%
same,"viability, T/C",[5],92.8%
same,"viability, T/C",[6],85.4%
same,"viability, T/C",[7],89.3%
same,"viability, T/C",[8],109%
same,"viability, T/C",[9],90.1%
same,"viability, T/C",[10],112%
same,"viability, T/C",[11],93.3%
same,"viability, T/C",[12],79.9%
same,"viability, T/C",[13],99.3%
same,"viability, T/C",[14],96.8%
same,"viability, T/C",[15],90.6%
same,"viability, T/C",[16],93.1%
same,"viability, T/C",[17],99.4%
same,"viability, T/C",[18],90.8%
same,"viability, T/C",[19],95.5%
same,"viability, T/C",[20],88.2%
same,"viability, T/C",[21],90.5%
same,"viability, T/C",[22],83.7%
same,"viability, T/C",[23],94%
same,"viability, T/C",[24],81%
same,"viability, T/C",[25],99.6%
same,"viability, T/C",[26],99.3%
same,"viability, T/C",[27],94.3%
same,"viability, T/C",[28],91.8%
same,"viability, T/C",[29],111%
same,"viability, T/C",[30],82.1%
same,"viability, T/C",[31],97.7%
same,"viability, T/C",[32],88.7%
same,"viability, T/C",[33],85.7%
same,"viability, T/C",[34],69.4%
same,"viability, T/C",[35],52.2%
same,"viability, T/C",[36],40.2%
COc1ccc([C@@H](O)c2cc(-c3ncnc4cc(N5CCOCC5)ccc34)c(F)cc2Cl)nn1 + CN(C)c1ccc(Nc2c3ccc(NC(=O)CCN4CCCC4)cc3nc3cc(NC(=O)CCN4CCCC4)ccc23)cc1,IC50,second compound 0.0316 µM,> 10 µM
same,IC50,second compound 0.1 µM,> 10 µM
same,IC50,second compound 0.316 µM,> 10 µM
same,IC50,second compound 1 µM,8.58 µM
same,IC50,second compound 3.16 µM,2.95 µM
same,IC50,second compound 10 µM,1.14 µM
same,"viability, T/C",[1],104%
same,"viability, T/C",[2],98.7%
same,"viability, T/C",[3],103%
same,"viability, T/C",[4],85.5%
same,"viability, T/C",[5],88%
same,"viability, T/C",[6],58.1%
same,"viability, T/C",[7],86.8%
same,"viability, T/C",[8],100%
same,"viability, T/C",[9],94.4%
same,"viability, T/C",[10],94.7%
same,"viability, T/C",[11],63.5%
same,"viability, T/C",[12],54.7%
same,"viability, T/C",[13],92.2%
same,"viability, T/C",[14],107%
same,"viability, T/C",[15],115%
same,"viability, T/C",[16],95.5%
same,"viability, T/C",[17],76%
same,"viability, T/C",[18],56.3%
same,"viability, T/C",[19],88.9%
same,"viability, T/C",[20],106%
same,"viability, T/C",[21],98%
same,"viability, T/C",[22],86.5%
same,"viability, T/C",[23],68.8%
same,"viability, T/C",[24],47%
same,"viability, T/C",[25],93.6%
same,"viability, T/C",[26],96.3%
same,"viability, T/C",[27],96.9%
same,"viability, T/C",[28],73.9%
same,"viability, T/C",[29],50.1%
same,"viability, T/C",[30],33.4%
same,"viability, T/C",[31],107%
same,"viability, T/C",[32],85.9%
same,"viability, T/C",[33],85.7%
same,"viability, T/C",[34],47.5%
same,"viability, T/C",[35],31.3%
same,"viability, T/C",[36],13.5%
